{
  "source": "patent US4094908A",
  "about": "“Alpha-substituted benzhydrol derivatives” (Richter Gedeon Vegyeszeti Gyar Rt., priority 1973, dated 1978)",
  "key": {"hexobarbital oxidase": {"tested_on": "hexobarbital oxidase", "test": "Enzyme-inducing potency: in vivo hexobarbital oxidase activity (duration of hexobarbital narcosis)", "parameters": "species or system Female Wistar rats", "conditions": "24 hours before hexobarbital", "procedure": "[…] 24 and 48 hours after the administration of the active agent, respectively, the animals were narcotized with 40 mg./kg. i.v. dosage of hexobarbital sodium, and the time elapsed until complete wakening was measured (Noordhock, J.: Eur. J. Pharmacol. 3, 242, 1968). The data were recorded, and the mean values, the standard errors, as well as the percentage increase with respect to the controls were calculated for each group. […] The hexobarbital concentration of the plasma, measured on the instant of wakening, was the same for both the treated and the control animals, thus the increase of narcosis period was not due to a certain central nervous interaction (Jori, A., Bianchatti, A., Presentini, P. E.: Biochem. Pharmacol. 19, 2687, 1970).\nThe enzyme-inducing potency of the new compounds was determined by several methods. One of these methods was the in vivo measurement of hexobarbital oxidase activity.\nThe decrease of narcosis period is due to the fact that the new compounds according to the invention accelerate the elimination of hexobarbital, a foreign substance, from the body. When administering the compound to be tested in a single dosage and measuring the duration of hexobarbital narcosis 24 hours after the administration, the following results are obtained: […]"}, "bilirubin elimination": {"tested_on": "bilirubin elimination", "test": "Bilirubin elimination under in vivo conditions", "parameters": "species or system rats", "conditions": "pre-treated rats; 30 mg./kg. free bilirubin i.v.", "procedure": "When examining the bilirubin elimination under in vivo conditions on rats pre-treated with E 15 or phenobarbital, respectively, and challenged intravenously with a dosage of 30 mg./kg. of free bilirubin, the following biological halving periods were determined (Krueger, H., Higginson, J.: Proc. Soc. Exp. Biol. Med. 107, 43, 1961): […]"}, "[1]": {"test": "Toxicity: perished animals/tested animals", "format": "in vivo", "description": "Despite its disadvantageous properties, phenobarbital is widely used in the treatment of neonatal jaundice. In order to enable a better comparison, Table 8 indicates the respective dosages in which phenobarbital causes lethal respiration paralysis, while the compounds according to the invention are completely innocuous."}, "central nervous system": {"tested_on": "central nervous system", "format": "in vivo, mice and rats", "description": "The central nervous activities of the compounds according to the invention were examined on mice and rats with the following methods: electroshock (Swinyard, E. A., Brown, W. C., Goodman, L. S.: J. Pharmacol. Exp. Ther. 106, 319, 1952), metrazol spasm (Everett, G. M., Richards, R. K.: J. Pharmacol. Exp. Ther. 81, 402: 1944), thiosemicarbezide spasm (Da Venzo, J. P. Greig, M. E., Cormin, M. A.: Amer. J. Physiol. 201, 833: 1961), strychnine spasm (Kerley, T. L., Richards, A. G., Begley, R. W., Abreu, B. B. Wesver, L. C.: J. Pharmacol. Exp. Ther. 132, 360: 1961), nicotine spasm (Stone, C. A., Mecklenburg, K. L., Torhans, M. L.: Arch. Int. Pharmacodyn. 117, 419: 1958), rotarod test (Kinnard, W. C., Carr, C. J.: J. Pharmacol. Expt. Ther. 121, 3, 54: 1957), physistigmine lethality preventing effect (Nose, T., Kojima, M.: Europ. J. Pharmacol. 10, 83: 1970), yohimbine potentiation effect (Quinton, R. M.: Brit. J. Pharmacol. 21, 51: 1963), and analgesic activity (Bianchi, G., Franceschini, J.: Brit. J. Pharm. Chemother. 9, 280: 1954). As reference substance, phenobarbital was used. […]"}, "[2]": {"conditions": "neonatal jaundice; in words; cited from earlier work"}},
  "data": [
    {"smiles": "CCC1(c2ccccc2)C(=O)NC(=O)NC1=O", "note": "[Phenobarbital, reference compound]", "values": [
      {"measurement": "Sleeping period ± standard error", "setting": "hexobarbital oxidase; 5 mg./kg. single dosage", "result": "20.1 ± 2.0"},
      {"measurement": "Sleeping period ± standard error", "setting": "hexobarbital oxidase; 10 mg./kg. single dosage", "result": "14.3 ± 1.4"},
      {"measurement": "Sleeping period ± standard error", "setting": "hexobarbital oxidase; 20 mg./kg. single dosage", "result": "14.0 ± 1.3"},
      {"measurement": "Sleeping period ± standard error", "setting": "hexobarbital oxidase; 40 mg./kg. single dosage", "result": "12.5 ± 1.2"},
      {"measurement": "t1/2 (biological halving period of bilirubin)", "setting": "bilirubin elimination", "result": 13, "unit": "min"},
      {"measurement": "Perished animals/tested animals", "setting": "[1]; 40 mg./kg", "result": "0/10"},
      {"measurement": "Perished animals/tested animals", "setting": "[1]; 80 mg./kg", "result": "0/10"},
      {"measurement": "Perished animals/tested animals", "setting": "[1]; 160 mg./kg", "result": "4/10"},
      {"measurement": "Perished animals/tested animals", "setting": "[1]; 320 mg./kg", "result": "9/10"},
      {"measurement": "Perished animals/tested animals", "setting": "[1]; 640 mg./kg", "result": "10/10"},
      {"measurement": "Central nervous effects", "setting": "central nervous system; in words, in contrast with phenobarbital", "result": "hypnotic and respiration paralyzing effects"},
      {"measurement": "Central nervous activity", "setting": "central nervous system; oral 40, 120 and 150 mg./kg., phenobarbital effect even at 40 mg./kg.", "result": "strong anticonvulsive muscle-incoordinating and sedative effects"},
      {"measurement": "Side effects", "setting": "[2]", "result": "toxic (sedative and respiration-paralyzing) side effects"}
    ]}
  ]
}
